Test results: patent US11484512B2, “Nanoparticles formed of a polymer and terbinafine” (Blueberry Therapeutics Limited, priority 2017, dated 2022)
In brackets after ≈: the same amount, converted by molar mass. Read-outs that look alike come from different tables or passages of the source.

Key:
[1] = Franz cell nail penetration, single dose (constant exposure); format: in vitro ADME, human
Protocol: Nail clippings were soaked in water overnight at 30° C. and dried briefly. A 3 mm diameter punch was used to take disc biopsies of the nail clippings. Each nail disc was added to a Franz cell and an upper chamber of the cell attached. 40 μl of the following formulations was added to the upper chambers: 0.3 mg/ml PHMB+0.1 mg/ml terbinafine; or 10 mg/ml terbinafine. Lower collection chambers of the Franz cells were filled with water (approximately 600 μl) and the hole in the base of the sample chamber also filled with ddH2O to prevent bubbles forming beneath the nail. The upper sample chamber was carefully placed into the collection chamber ensuring not to introduce any air bubbles. Excess liquid from the collection chamber was expelled at this point leaving a final volume of liquid in the lower chamber of 500 μl. […] The nail discs from the Franz cell were also analysed for the presence of terbinafine as follows: the remaining test sample was removed from the upper sample chamber and discarded and the sample chamber washed 5 times with 100 μl ddH2O, with each wash being discarded, in order to remove any residual test solution remaining in the sample chamber. […] After 7 days, samples from the underside of the nail (ethanol washes) were collected and analysed by LC-MS/MS. […] Levels of terbinafine were quantified against drug standards. […]

T. mentagrophytes = assay: Trychophyton mentagrophytes anti-fungal paper disc lawn assay; format: cell-based; conditions: 5 days incubation
Protocol: FIGS. 6A-6E are photographic images of yeast extract peptone dextrose (YEPD) agar plates with Trychophyton mentagrophytes after incubation for 4 days at 30° C. […] 40 μl of double distilled water or terbinafine solution of varying concentration was spotted onto each paper disc. The concentration of the terbinafine solutions used were: 0 μg/ml (control, FIG. 6A), 0.06 μg/ml (FIG. 6B), 0.6 μg/ml (FIG. 6C), 6.00 μg/ml (FIG. 6D) and 60.0 μg/ml (FIG. 6E); FIGS. 7A and 7B are photographic images of YEPD plates assessing the efficacy of BB2603 (terbinafine and PHMB nanoparticles) and terbinafine samples passing through healthy human nail against Trychophyton mentagrophytes A lawn of Trychophyton mentagrophytes was spread onto YEPD agar plates supplemented with 50 μg/ml chloramphenicol. The aqueous samples from the Franz cell collection chamber following 7 days treatment of healthy human nails with either 0.1 mg/ml terbinafine (FIG. 7A) or BB2603 (FIG. 7B) were spotted onto 10 mm paper discs. The discs were placed in the middle of the Trychophyton plates, which were then incubated at 30° C. for 5 days to allow the fungi to grow. […]

Epidermophyton floccosum = conditions: 42 strains tested; cited from earlier work
Microsporum species = conditions: 25 strains tested; cited from earlier work
Microsporum canis = conditions: 49 strains tested; cited from earlier work
Trichophyton species = conditions: 27 strains tested; cited from earlier work
Trichophyton rubrum = conditions: 72 strains tested; cited from earlier work
Trichophron verrucosum = conditions: 17 strains tested; cited from earlier work
[2] = tested on: Trichophron mentagrophytes; conditions: cited from earlier work
[3] = tested on: Trichophyton interdigitale; conditions: 11 strains tested; cited from earlier work
Trichophyron terestre = conditions: 1 strain tested; cited from earlier work
[4] = cited from earlier work
onychomycosis = conditions: following 3-6 months of dosing, oral; cited from earlier work

## CN(C/C=C/C#CC(C)(C)C)Cc1cccc2ccccc12 [terbinafine]
[1]; 0.1 mg/ml, 30% (v/v) ethanol, 7 days, single dose, BB2603 value is median
  concentration of terbinafine in ethanol washes of the underside of the nail: < 0.1 ng/mL
[1]; after 7 days, FIGS. 4 and 5A-5B
  median concentration of drug in dissolved nails: approximately 0.5 mg/g
T. mentagrophytes; Trichophyton mentagrophytes, 120 h, 30° C.
  MIC: 600 ng/mL (≈ 2060 nM)
T. mentagrophytes; collection chamber sample after 7 days nail treatment
  zone of clearance with Franz cell aqueous sample passed through nail: no effect
Epidermophyton floccosum
  MIC range: 1 to 47 ng/mL
Microsporum species
  MIC range: 2 to 70 ng/mL
Microsporum canis
  MIC range: 6 to 80 ng/mL
Trichophyton species
  MIC range: ≤60 ng/mL
Trichophyton rubrum
  MIC range: 1 to 38 ng/mL
Trichophron verrucosum
  MIC range: 1 to 6 ng/mL
[2]; 32 strains tested
  MIC range: 1 to 6 ng/mL
[2]; liquid MIC assay
  previously reported MIC: 6 ng/mL
[3]
  MIC range: 2 to 28 ng/mL
Trichophyron terestre
  MIC range: 2 ng/mL (≈ 6.86 nM)
[4]; after 3 weeks
  concentration in nails following oral dosing: about 0.25 μg/g
[4]; after 18 months
  concentration in nails following oral dosing: 0.55 µg/g
[4]; after 7 days treatment
  concentration in nails following oral dosing: 0.1 µg/g
onychomycosis
  cure: > 80%
